ChEMBL document CHEMBL5034034 (J Med Chem, 2021)
Calls of active or inactive are those of the source. The calls are words filed in the database; no cut-off is given here.

Legend:
[1] = biological target: T1, Proprotein convertase subtilisin/kexin type 9 (Homo sapiens, UniProt Q8NBP7); experiment: Inhibition of human PCSK9 using Alexa Fluor […] as substrate incubated for 2 hrs by FRET assay
[2] = biological target: T1, Proprotein convertase subtilisin/kexin type 9; experiment: Inhibition of human PCSK9 using Alexa Fluor […] as substrate incubated for 2 hrs by FRET plus assay
Mast cell = experiment: Induction of rat mast cells degranulation activity at 100 uM incubated for 30 mins; assay type: functional, tissue-based
[3] = biological target: T1, Proprotein convertase subtilisin/kexin type 9; experiment: Inhibition of human PCSK9 using Alexa Fluor […] as substrate incubated for 2 hrs by FRET ultra assay

T1 sequence (Q8NBP7 31-152 limits assumed): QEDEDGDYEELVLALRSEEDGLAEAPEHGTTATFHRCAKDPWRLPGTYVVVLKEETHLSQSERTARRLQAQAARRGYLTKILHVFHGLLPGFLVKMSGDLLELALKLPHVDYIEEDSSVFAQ
T1 sequence (Q8NBP7 153-692 limits assumed): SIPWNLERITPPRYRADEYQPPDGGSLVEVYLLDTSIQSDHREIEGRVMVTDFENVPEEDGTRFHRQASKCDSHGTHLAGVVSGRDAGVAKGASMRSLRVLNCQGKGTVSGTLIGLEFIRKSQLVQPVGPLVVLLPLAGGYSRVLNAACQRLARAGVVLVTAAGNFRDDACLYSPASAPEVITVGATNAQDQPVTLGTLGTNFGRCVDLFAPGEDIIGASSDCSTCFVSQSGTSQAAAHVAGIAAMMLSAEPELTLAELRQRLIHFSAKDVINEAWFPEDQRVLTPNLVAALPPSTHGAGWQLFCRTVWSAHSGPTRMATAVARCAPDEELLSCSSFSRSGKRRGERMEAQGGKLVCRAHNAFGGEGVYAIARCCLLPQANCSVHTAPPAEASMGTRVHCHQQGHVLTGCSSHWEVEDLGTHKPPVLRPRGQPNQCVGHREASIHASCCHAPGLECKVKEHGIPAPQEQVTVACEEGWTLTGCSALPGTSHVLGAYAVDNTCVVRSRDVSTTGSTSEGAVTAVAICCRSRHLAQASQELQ

| Compound | Ki [1] [nM] | Ki [2] [nM] | Ki [3] [nM] | Activity (Mast cell) |
| --- | --- | --- | --- | --- |
| COc1ccc(C[C@@H]2NC(=O)[C@H]([C@H](C)OC)NC(=O)[C@@H]3[C@@H]4CCN3C(=O)[C@H](Cc3c[nH]c5ccc(F)cc35)NC(=O)[C@H](Cc3cccc(c3)C/C=C\CO4)NC(=O)[C@H](C)NC(=O)[C@H](CN)NC(=O)CCSCc3cccc(c3)CSCCNC(=O)[C@]3(C)CCCN3C2=O)cc1 | 4.36 |  |  |  |
| COc1ccc(C[C@@H]2NC(=O)[C@H]([C@@H](C)OC)NC(=O)[C@@H]3[C@@H]4CCN3C(=O)[C@H](Cc3c[nH]c5ccc(F)cc35)NC(=O)[C@H](Cc3cccc(c3)C/C=C\CO4)NC(=O)[C@@H](C)NC(=O)[C@H](C)NC(=O)CCSCc3cccc(c3)CSCCNC(=O)[C@]3(C)CCCN3C2=O)cc1 | 4.83 |  |  |  |
| COc1ccc(C[C@@H]2NC(=O)[C@H]([C@@H](C)O)NC(=O)[C@@H]3[C@@H]4CCN3C(=O)[C@H](Cc3c[nH]c5ccc(F)cc35)NC(=O)[C@H](Cc3cccc(c3)C/C=C\CO4)NC(=O)[C@@H](C)NC(=O)[C@H](C)NC(=O)CCSCc3cccc(c3)CSCCNC(=O)[C@]3(C)CCCN3C2=O)cc1 | 4.66 |  |  |  |
| COc1ccc(C[C@@H]2NC(=O)[C@H]([C@@H](C)O)NC(=O)[C@@H]3[C@@H]4CCN3C(=O)[C@@H]3Cc5cn(c6ccc(F)cc56)Cc5cn(nn5)-c5cc(cc(c5)CSCCC(=O)N[C@@H](CN)C(=O)N[C@H](C)C(=O)N[C@@H](Cc5cccc(c5)C/C=C\CO4)C(=O)N3)CSCCNC(=O)[C@]3(C)CCCN3C2=O)cc1 |  | 0.037 |  | inactive |
| COc1ccc(C[C@@H]2NC(=O)[C@H]([C@@H](C)OC)NC(=O)[C@@H]3[C@@H]4CCN3C(=O)[C@H](Cc3c[nH]c5ccc(F)cc35)NC(=O)[C@H](Cc3cccc(c3)CCCCO4)NC(=O)[C@@H](C)NC(=O)[C@H](C)NC(=O)CCSCc3cccc(c3)CSCCNC(=O)[C@]3(C)CCCN3C2=O)cc1 | 2.17 |  |  |  |

Now from value to compound, other results behind:

| Ki [1] [nM] | Ki [2] [nM] | Ki [3] [nM] | Compound | Activity (Mast cell) |
| --- | --- | --- | --- | --- |
| 0.43 | 0.25 |  | COc1ccc(C[C@@H]2NC(=O)[C@H]([C@@H](C)O)NC(=O)[C@@H]3[C@@H]4CCN3C(=O)[C@H](Cc3c[nH]c5ccc(F)cc35)NC(=O)[C@H](Cc3cccc(c3)C/C=C/CO4)NC(=O)[C@@H](C)NC(=O)[C@H](C)NC(=O)CCSCc3cccc(c3)CSCCNC(=O)[C@]3(C)CCCN3C2=O)cc1 |  |
| 0.45 | 0.23 |  | COc1ccc(C[C@@H]2NC(=O)[C@H]([C@H](C)OC)NC(=O)[C@@H]3[C@@H]4CCN3C(=O)[C@H](Cc3c[nH]c5ccc(F)cc35)NC(=O)[C@H](Cc3cccc(c3)C/C=C/CO4)NC(=O)[C@H](C)NC(=O)[C@H](CN)NC(=O)CCSCc3cccc(c3)CSCCNC(=O)[C@]3(C)CCCN3C2=O)cc1 | inactive |
| 1.16 | 2.25 |  | COc1ccc(C[C@@H]2NC(=O)[C@H]([C@@H](C)OC)NC(=O)[C@@H]3[C@@H]4CCN3C(=O)[C@H](Cc3c[nH]c5ccc(F)cc35)NC(=O)[C@H](Cc3cccc(c3)C/C=C\CO4)NC(=O)[C@@H](CN)NC(=O)[C@H](C)NC(=O)CCSCc3cccc(c3)CSCCNC(=O)[C@]3(C)CCCN3C2=O)cc1 |  |
| 0.2 | 0.16 |  | COc1ccc(C[C@@H]2NC(=O)[C@H]([C@@H](C)OC)NC(=O)[C@@H]3[C@@H]4CCN3C(=O)[C@H](Cc3c[nH]c5ccc(F)cc35)NC(=O)[C@H](Cc3cccc(c3)C/C=C/CO4)NC(=O)[C@@H](CN)NC(=O)[C@H](C)NC(=O)CCSCc3cccc(c3)CSCCNC(=O)[C@]3(C)CCCN3C2=O)cc1 |  |
| < 0.129 | < 0.01 | 0.0006 | COc1ccc(C[C@@H]2NC(=O)[C@H]([C@H](C)O)NC(=O)[C@@H]3[C@@H]4CCN3C(=O)[C@@H]3Cc5cn(c6ccc(F)cc56)Cc5cn(nn5)-c5cc(cc(c5)CSCCC(=O)N[C@@H](C)C(=O)N[C@@H](CNC(=O)CCOCCOCCNC(=O)CCCC[C@@H]5SC[C@H]6NC(=O)N[C@@H]56)C(=O)N[C@@H](Cc5cccc(c5)C/C=C/CO4)C(=O)N3)CSCCNC(=O)[C@]3(C)CCCN3C2=O)cc1 |  |
